Reference: patent EP1500700B1, “Use of a pectic acid lyase in a detergent” (KAO CORPORATION, priority 1997, dated 1998)

How the values were obtained:
[1] = tested on: pectic acid lyases from Example 3 and Example 8; format: biochemical, Bacillus sp. KSM-P15; details: pH 7.5
[2] = tested on: wild-type and reconbinant enzyme; experiment: Effect of the arginine-modifier 2,3-butanedione on residual activity; format: biochemical, Bacillus sp. KSM-P15; details: 0.1 M borate buffer pH 9.5, 30°C, 30 minutes; both enzymes
[3] = tested on: pectic acid lyase from Bacillus sp. KSM-P15, wild type (BPAL, Example 3), Sequence No. 1; experiment: Effect of H2O2 on residual pectic acid lyase activity; format: biochemical; details: in the presence of 3% H2O2; 50 mM Tris-HCl buffer (pH 7.5), 30°C, 30 minutes
Description: (§1) 0.5 M glycine-NaOH buffer (pH 10.5) (0.3 ml), 6 mM calcium chloride (0.3 ml), and deionized water (1.7 ml) were placed in a test tube, which was then incubated at 30°C for 5 minutes. An appropriately diluted enzyme solution [0.1 ml, diluted with 50 mM Tris-HCl buffer containing 1 mM calcium chloride (pH 7.5)] was added to the test tube, which was further incubated at constant temperature for 5 minutes. An aqueous solution of polygalacturonic acid (0.6 ml, 1% (w/v), product of ICN Biomedicals Co., Lot 14482, pH 6.8 adjusted with sodium hydroxide solution) was added to the enzyme solution to initiate reaction, and the mixture was incubated at 30°C for 10 minutes. The reaction was terminated by the addition of 3 ml of 50 mM HCl. The quantity of unsaturated Oligogalacturonic acid formed in the reaction was determined through measuring the absorbance at 235 nm and calculating with the molar extinction coefficient of unsaturated digalacturonide (4600 M^-1 cm^-1, Hasegawa & Nagel, J. Food Sci., 31, 838-845, 1966). A test blank was prepared as follows: 50 mM hydrochloric acid (3 ml) was added to a reaction mixture treated without being incorporated with the enzyme solution, and subsequently an enzyme solution (0.1 ml) was added thereto. […]

[4] = tested on: recombinant pectic acid lyase of Bacillus sp. KSM-P15 (rPAL, Example 8), Sequence No. 1; experiment: as above; format: biochemical; details: in the presence of 3% H2O2; 50 mM Tris-HCl buffer (pH 7.5), 30°C, 30 minutes
Description: as §1

Row | Compound | inhibition (in words) [1] | other results
1 | O[C@H](CS)[C@H](O)CS (racemic) [dithiothreitol] | slightly inhibited or did not completely inhibit the enzymes | 
2 | CC(=O)C(C)=O [2,3-butanedione] |  | inhibition (residual activity) [2]: ≥ 40%
3 | O=C(O)c1cc(SSc2ccc([N+](=O)[O-])c(C(=O)O)c2)ccc1[N+](=O)[O-] [5,5'-dithiobis(2-nitrobenzoic acid)] | slightly inhibited or did not completely inhibit the enzymes | 
4 | O=C1CCC(=O)N1Br [N-bromosuccinimide] |  | percentage inhibition [1]: 30-40%
5 | CCN1C(=O)C=CC1=O [N-ethylmaleimide] | slightly inhibited or did not completely inhibit the enzymes | 
6 | CCOC(=O)OC(=O)OCC [diethyl pyrocarbonate] | slightly inhibited or did not completely inhibit the enzymes | 
7 | O=CC=O [glyoxal] | slightly inhibited or did not completely inhibit the enzymes | 
8 | O=C(O)CI [iodoacetic acid] | slightly inhibited or did not completely inhibit the enzymes | 
9 | O=C(O)c1cc[c]([Hg][Cl])cc1 [p-Chloromercuribenzoic acid] | slightly inhibited or did not completely inhibit the enzymes | 
10 | H2O2 |  | inactivation (residual activity, in words) [3]: not be inactivated; inactivation (residual activity, in words) [4]: not be inactivated
